Experimental data published in patent publication US20190117586A1, “METHODS OF PREVENTING OR TREATING PARKINSON'S DISEASE BY THE FARNESYLATION OF PARIS” (The Johns Hopkins University, priority 2016, published 2019).

Key:
[1] = system: AAV-PARIS injected C57BL/6J mice; format: in vivo
[2] = Farnesol concentration in brain and plasma of farnesol diet fed mice by mass spectrometry; format: in vivo; settings: 0.5% w/w trans-farnesol in AIN-76A diet; for concentration at 7 days: mouse, oral, 0.5 % w/w in diet
[3] = system: PARIS; assay: Subcellular fractionation of PARIS by immunoblot; format: cell-based
Experimental: (§1) To confirm that farnesylation of PARIS requires FTase, siRNA-FTase α knockdown or FTI-277 inhibition of FTase in the setting of PARIS overexpression was performed (FIG. 4C). […] To ascertain whether the farnesylation of PARIS affects the DNA binding activity of PARIS on the IRS motif of the PGC-1α promoter, a chromatin immunoprecipitation assay (ChIP) was performed from SH-SY5Y transfected with GFP-tagged PARIS WT or GFP-tagged PARIS C631S. […] To examine the possibility that the farnesylation of PARIS alters its subcellular distribution, subcellular fractionation was used to monitor the levels of PARIS in cytosolic, membrane, soluble nuclear, and chromatin-bound nuclear fractions by immunoblot analysis (FIG. 4F).

[4] = system: PGC-1α; assay: Parkin knockdown (lentiviral shRNA-parkin) SH-SY5Y cells; format: cell-based
Experimental: Knockdown of parkin leads to a 2.7 fold increase in the level of PARIS and a 65% decrease of PGC-1α (FIGS. 2D and 2E). […] The mRNA levels of PGC-1α and its target genes were assessed after knocking down parkin by real-time qRT-PCR.

[5] = system: PGC-1α and PGC-1α's target genes; assay: mRNA of PGC-1α and target genes in STR, HIP and SN of farnesol-fed mice; format: in vivo
Experimental: (§2) Farnesol is a natural organic compound in both plants and animals. Phosphate derivatives of farnesol are the building blocks of cholesterol in mammalian cells. […] The level of PGC-1α was measured from different brain regions in farnesol-fed mice. PGC-1α levels increase 2.7-fold in the olfactory bulb (OB), 1.6-fold in hippocampus (HIP), and 1.7-fold in substantia nigra (SN) as compared to that of mice on normal mouse chow (FIGS. 2H and 2I). […] In addition, mRNA levels of PGC-1α and a variety of PGC-1α's target genes in the STR, HIP, and SN of farnesol-fed mice were measured.

[6] = system: PPARα and PPARγ; assay: PPARα and PPARγ levels, target genes and PPAR responsive element in SH-SY5Y cells; format: cell-based
[7] = system: PGC-1α; assay: PGC-1α level in brain regions of farnesol-fed mice; format: in vivo; settings: farnesol-fed mice versus normal mouse chow
Experimental: as §2

[8] = system: PGC-1α and NRF-1; assay: shRNA knockdown of PARIS in SH-SY5Y cells; format: cell-based
[9] = system: PPARα and PPARγ; assay: PPARα and PPARγ levels and target gene mRNA in farnesol fed mice; format: in vivo
[10] = dietary farnesol in rats; cited from earlier work
[11] = system: PGC-1α; assay: PGC-1α levels in SH-SY5Y cells by immunoblot; format: cell-based; settings: SH-SY5Y cells
Experimental: The 9 compounds that activate the PGC-1α promoter in the presence of PARIS were evaluated to determine which compounds induce PGC-1α levels in SH-SY5Y cells (FIGS. 2A and 2B). […] The mRNA level of PGC-1α target genes including copper/zinc superoxide dismutase (SOD1), manganese SOD (SOD2), glutathione peroxidase (GPx1), catalase (CAT), nuclear respiratory factor-1 (NRF-1), mitochondrial transcription factor A (TFAM), mitochondrial uncoupling proteins (UCP2 and UCP3), and the oxidative phosphorylation regulators, ATP5b, cytochrome C (CytC) and cytochrome C oxidase (COX II and IV) were determined by real-time quantitative RT-PCR (qRT-PCR) (FIG. 2C).
(§3) Geraniol or geranylgeraniol have no effect on PGC-1α levels (FIG. 3H).

[12] = dietary farnesol in rodents; cited from earlier work
[13] = target: T1, PPARγ (Homo sapiens, UniProt P37231); settings: cited from earlier work
T1 sequence (P37231 1-505): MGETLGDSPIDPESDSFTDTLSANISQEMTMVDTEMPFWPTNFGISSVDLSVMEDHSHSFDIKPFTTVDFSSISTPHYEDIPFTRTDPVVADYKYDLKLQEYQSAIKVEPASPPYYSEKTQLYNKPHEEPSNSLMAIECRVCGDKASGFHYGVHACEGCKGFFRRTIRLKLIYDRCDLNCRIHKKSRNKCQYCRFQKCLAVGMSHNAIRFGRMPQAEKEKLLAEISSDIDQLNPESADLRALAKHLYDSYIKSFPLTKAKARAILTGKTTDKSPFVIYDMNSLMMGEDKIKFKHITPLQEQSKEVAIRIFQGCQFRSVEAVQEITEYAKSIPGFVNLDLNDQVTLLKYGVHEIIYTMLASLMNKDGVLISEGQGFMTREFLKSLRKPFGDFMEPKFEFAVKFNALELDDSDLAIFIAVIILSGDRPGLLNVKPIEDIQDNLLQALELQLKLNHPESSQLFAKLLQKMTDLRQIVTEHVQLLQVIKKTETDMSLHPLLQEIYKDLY

[14] = system: PARIS; assay: PARIS farnesylation in SH-SY5Y cells transfected with Flag-tagged PARIS (immunoprecipitation); format: cell-based
Experimental: as §3, §1

[15] = farnesol diet from one week prior to injection
[16] = farnesol fed versus normal chow fed mice
[17] = SH-SY5Y, Flag-tagged PARIS, farnesol treatment 48 hours

## CC(C)=CCC/C(C)=C/CC/C(C)=C/CO [farnesol, (2E,6E)-3,7,11-trimethyldodeca-2,6,10-trien-1-ol]
[1]; AAV injected mice, farnesol diet
  levels of PARIS WT or PARIS C631S: did not affect
[1]; AAV-PARIS WT, farnesol diet
  amphetamine-induced rotation behavior: restoration of amphetamine-induced rotation behavior
[1]; [15]
  dopamine neuronal survival, AAV-PARIS C631S mice: no effect
  loss of dopamine neurons, AAV-PARIS WT mice: completely prevents the loss of dopamine neurons
[1]; farnesol fed mice, two weeks post-AAV injection
  farnesylated PARIS in AAV-PARIS WT compared to AAV-PARIS C631S injected mice: robustly observed
[2]; 7 days
  increase of farnesol level in the brain versus control diet fed mice: 37%
[2]; brain
  concentration at 7 days: 155 ng/g
[2]; plasma, non-detectable on control diet
  concentration at 7 days: 113 ng/mL
[3]
  distribution of PARIS in cytoplasmic, membrane, and soluble nuclear fractions: no change
[3]; PARIS WT or C631S
  level of chromatin-bound PARIS: abolished the level of chromatin-bound PARIS WT but not PARIS C631S
[4]
  level of PGC-1α: restores the level of PGC-1α
  level of parkin and PARIS: without affecting the level of parkin and PARIS
[4]; qRT-PCR
  mRNA levels of SOD2, TFAM, ATP5B, CYTC, and COX II: significantly increased
  reduction of mRNA of PGC-1α and NRF-1: rescued
[5]; farnesol fed mice, SN, HIP, STR
  mRNA levels of SOD2, TFAM, UCP2, and CYTC: exclusively increased in SN, but not in the HIP and STR
[5]; [16]
  mRNA level of PGC-1α in HIP, SN and STR: significantly upregulated in the HIP and SN, but not in the STR
  mRNA levels of NRF-1, COX II, and COX IV: upregulated in both HIP and SN
[6]
  activation of a PPAR responsive element: fails to activate
  levels of PPARα and PPARγ protein and mRNA and target genes ACOX1, CPT-1A, MCAD, LCAD: fails to influence
[7]
  PGC-1α level increase, hippocampus (HIP): 1.6 fold
  PGC-1α level increase, olfactory bulb (OB): 2.7 fold
  PGC-1α level increase, substantia nigra (SN): 1.7 fold
  PGC-1α levels in cerebellum (CBM), brain stem (BS), striatum (STR), frontal cortex (CTX): No significant change
[8]
  PGC-1α and NRF-1 levels after knockdown of PARIS: fails to enhance the levels further
[9]; SN of farnesol fed mice
  mRNA levels of MCAD: increases
  mRNA levels of PPARγ and ACOX1: decreases
[9]; farnesol fed mice
  PGC-1α and NRF-1 levels: increase
  levels of PPARα and PPARγ: no alteration
[10]
  level of serum triglycerides, cholesterol: lowers
[11]
  PGC-1α level by immunoblot analysis: significantly increased
[12]
  cardioprotective effects: exhibits cardioprotective effects
[13]
  activation of PPARγ in vitro: capable of activating
[14]; PARIS C631S mutant
  restoration of PGC-1α levels with PARIS C631S mutant: no effect
[14]; PARIS C631S mutant, in the presence of farnesol
  farnesylation of FLAG-PARIS C631S mutant: no farnesylation
[14]; PARIS WT
  PGC-1α level with PARIS WT: upregulation of PGC-1α
[14]; PARIS WT, farnesol treatment
  farnesylation of FLAG-PARIS WT: farnesylation is increased
[14]; [17]
  PARIS farnesylation: increases PARIS farnesylation in a dose-dependent manner
  PGC-1α accompanying PARIS farnesylation: increase in PGC-1α
